Reference: ChEMBL document CHEMBL1681742, “Novel second generation analogs of eribulin. Part I: Compounds containing a lipophilic C32 side chain overcome P-glycoprotein susceptibility” (Bioorg Med Chem Lett, 2011)

Experiments:
[1] = Antiproliferative activity against P-gp overexpressing human MES-SA/Dx5-Rx1 cells assessed as growth inhibition; format: functional
[2] = system: HCT-15; assay: Antiproliferative activity against human HCT15 cells assessed as growth inhibition; format: functional, cell-based
[3] = Antiproliferative activity against human MES-SA cells assessed as growth inhibition; format: functional, cell-based
[4] = Fold resistance, ratio of IC50 for antiproliferative activity for P-gp overexpressing human MES-SA/Dx5-Rx1cells to IC50 for antiproliferative activity for human MES-SA cells
[5] = Cytotoxicity against human IMR90 cells up to 1 uM; format: cell-based; conditions: imr-90
[6] = system: DLD-1; assay: Antiproliferative activity against human DLD1 cells assessed as growth inhibition; format: functional, cell-based

| IC50 [2] | IC50 [6] | SMILES | IC50 [1] | IC50 [3] | Ratio IC50 [4] | Activity [5] |
| --- | --- | --- | --- | --- | --- | --- |
| 28.5 nM | – | CC[C@]1(O)C[C@@H]2CN(CCc3c([nH]c4ccccc34)[C@@](C(=O)OC)(c3cc4c(cc3OC)N(C)[C@H]3[C@@](O)(C(=O)OC)[C@H](OC(C)=O)[C@]5(CC)C=CCN6CC[C@]43[C@@H]65)C2)C1 [VINBLASTINE] | 440 nM | 2.28 nM | 224.18 | Non-toxic |
| 0.83 nM | 1.46 nM | C#CC[C@H]1O[C@H]2C[C@H]3O[C@@H](CC[C@@H]4O[C@@H](CC[C@@]56C[C@H]7O[C@H]8[C@@H](O5)[C@H]5O[C@H](CC[C@@H]5O[C@H]8[C@H]7O6)CC(=O)C[C@@H]2[C@H]1OC)CC4=C)C[C@@H](C)C3=C | 2.01 nM | 0.73 nM | 2.75 | Non-toxic |
| 0.68 nM | 1.43 nM | C=C1C[C@@H]2CC[C@@]34C[C@H]5O[C@H]6[C@@H](O3)[C@H]3O[C@H](CC[C@@H]3O[C@H]6[C@H]5O4)CC(=O)C[C@@H]3[C@@H](OC)[C@@H](CCC#N)O[C@H]3C[C@H]3O[C@@H](CC[C@@H]1O2)C[C@@H](C)C3=C | 2.91 nM | 0.75 nM | 3.88 | Non-toxic |
| 0.23 nM | 0.27 nM | C=C1C[C@@H]2CC[C@@]34C[C@H]5O[C@H]6[C@@H](O3)[C@H]3O[C@H](CC[C@@H]3O[C@H]6[C@H]5O4)CC(=O)C[C@@H]3[C@@H](OC)[C@@H](C[C@H](O)COCC)O[C@H]3C[C@H]3O[C@@H](CC[C@@H]1O2)C[C@@H](C)C3=C | 2.24 nM | 0.2 nM | 11.2 | Non-toxic |
| 0.62 nM | 0.67 nM | C=C1C[C@@H]2CC[C@@]34C[C@H]5O[C@H]6[C@@H](O3)[C@H]3O[C@H](CC[C@@H]3O[C@H]6[C@H]5O4)CC(=O)C[C@@H]3[C@@H](OC)[C@@H](CC(=O)COC)O[C@H]3C[C@H]3O[C@@H](CC[C@@H]1O2)C[C@@H](C)C3=C | 2.92 nM | 0.44 nM | 6.7 | Non-toxic |
| – | – | CC(=O)O[C@H]1C(=O)[C@@]2(C)[C@H]([C@H](OC(=O)c3ccccc3)[C@]3(O)C[C@H](OC(=O)[C@H](O)[C@@H](NC(=O)c4ccccc4)c4ccccc4)C(C)=C1C3(C)C)[C@]1(OC(C)=O)CO[C@@H]1C[C@@H]2O [PACLITAXEL] | > 1000 nM | 2.96 nM | >338 | Non-toxic |
| – | – | C=C1C[C@@H]2CC[C@@]34C[C@H]5O[C@H]6[C@@H](O3)[C@H]3O[C@H](CC[C@@H]3O[C@H]6[C@H]5O4)CC(=O)C[C@@H]3[C@@H](OC)[C@@H](C[C@H](O)COC(C)=O)O[C@H]3C[C@H]3O[C@@H](CC[C@@H]1O2)C[C@@H](C)C3=C | 3.47 nM | 0.11 nM | 33 | Non-toxic |
| – | – | C=C1C[C@@H]2CC[C@@]34C[C@H]5O[C@H]6[C@@H](O3)[C@H]3O[C@H](CC[C@@H]3O[C@H]6[C@H]5O4)CC(=O)C[C@@H]3[C@@H](OC)[C@@H](CC)O[C@H]3C[C@H]3O[C@@H](CC[C@@H]1O2)C[C@@H](C)C3=C | 1.36 nM | 1.06 nM | 1.81 | Non-toxic |
| 154 nM | – | COc1cccc2c1C(=O)c1c(O)c3c(c(O)c1C2=O)C[C@@](O)(C(=O)CO)C[C@@H]3O[C@H]1C[C@H](N)[C@H](O)[C@H](C)O1 [DOXORUBICIN] | 2700 nM | 26.4 nM | 134 | Non-toxic |
